Reference: the METLIN SMRT retention time set (Domingo-Almenara et al. 2019)

Test: gradient 5% acetonitrile 3 min, to 50% in 2 min, to 85% in 15 min, held 3 min, 100 µL/min
Settings: column: Zorbax Extend-C18 2.1 x 50 mm; eluents: water / acetonitrile, 0.1% formic acid
Summary of the method: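 A Zorbax Extend-C18 column (2.1 × 50 mm, 1.8 μm) run at 100 μL/min with water and acetonitrile, both containing 0.1% formic acid, separated mixtures of ~100 pure standards. The HPLC was coupled to a quadrupole time-of-flight mass spectrometer operated in positive and negative ionization mode, with dead and dwell volumes of 40 μL and 900 μL. Each retention time was taken from a computationally picked adduct peak that was then manually inspected.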

Row | Structure (SMILES) | RP-LC retention time [s]
1 | CN(CCc1noc(-c2ccc(F)cc2)n1)C(=O)COc1ccc(F)cc1 | 889
2 | NC(=O)[C@@H]1CCCN1C(=O)[C@H](Cc1ccccc1)NC(=O)[C@@H]1CCCN1C(=O)[C@@H](N)Cc1ccc(O)cc1 | 584
3 | COc1cc(Br)c(CC2C(=O)Nc3ccccc32)cc1OC (stereo not given) | 842
4 | Cc1ccc(-c2[nH]ncc2CN)cc1C | 586
5 | Cc1ccc(-c2nc(N)n(C(=O)C3CC3)n2)cc1C | 962
6 | Cn1cnc2c(C(=O)N3CCN(C4CCCCC4)CC3)nn(-c3ccc(Cl)cc3)c2c1=O | 654
7 | Cn1cccc1C(=O)N1CCC(OCc2nc(C3CC3)no2)CC1 | 799
8 | Cc1oc(-c2cccs2)nc1CSc1ncnc2nc[nH]c12 | 714
9 | CC(C)(C)NC(=O)N1CCC(c2nc(CCNC(=O)C3CC3)cs2)CC1 | 675
10 | COc1cccc(-c2noc(C3CC(=O)N(c4ccc(Cl)cc4)C3)n2)c1OC (stereo not given) | 963
11 | Cc1nnc2ccc(-c3noc(CCc4ccccc4)n3)cn12 | 1140
12 | O=c1c2cc3c(cc2nc(SCc2nc(-c4ccccc4)no2)n1Cc1ccncc1)OCO3 | 776
13 | CCOc1ccc(C2C(C(=O)N3CCCCC3)=C(C)NC3=C2C(=O)CCC3)cc1OC (stereo not given) | 674
14 | Cc1nnc(SCC(=O)c2ccc3c(c2)OCCO3)s1 | 746
15 | Cc1sc2ccn(Cc3ccc(F)cc3)c(=O)c2c1C(=O)NC1CC1 | 759
16 | Cc1cccc(-n2c(=O)c3c(cc(C)n3C)n(CC(=O)Nc3ccc4c(c3)OCO4)c2=O)c1 | 837
17 | COc1cc(F)ccc1-c1ccnc2nc(Cc3ccc(F)cc3)nn12 | 905

Row | Structure (SMILES) | RP-LC retention time [s]
18 | Cc1ccc(-c2nnc(-c3nc(N4CCCCC4C)c4ccccc4n3)o2)cc1 (stereo not given) | 1260
19 | CCCn1cc(S(=O)(=O)Nc2ccc(C)c(C)c2)c2cccnc21 | 960
20 | O=C(c1c(F)cccc1Cl)N1CCN(S(=O)(=O)c2cc3c4c(c2)CCC(=O)N4CCC3)CC1 | 828
21 | Cn1cc(C(CNC(=O)Nc2ccc(Br)cc2F)c2cccnc2)c2ccccc21 (stereo not given) | 781
22 | CN(C(=O)Cn1nc(Cc2cccnc2)c2ccccc2c1=O)c1ccc(Br)cc1 | 679
23 | COc1ccc(S(=O)(=O)N2CCC(CN3CCC(C)CC3)CC2)cc1Cl | 692
24 | CC(C)NC(=O)C1CCCN(c2nc3ncn(CC(=O)Nc4ccccc4Cl)c(=O)c3s2)C1 (stereo not given) | 741
25 | CC(C)(C)c1noc(-c2cccnc2-n2cnc(C(=O)Nc3ccc(F)cc3)c2)n1 | 984
26 | Cc1c2cnn(CC(=O)NCCN(C)C)c(=O)c2c(C)n1Cc1ccccc1Cl | 655
27 | CC(C)N(Cc1ccccc1)C(=O)CN1C(=O)CCc2cc(S(=O)(=O)N3CCCCC3C)ccc21 (stereo not given) | 1060
28 | O=C(NCCN1CCCC1)c1c2c(nc3ccccc13)C(=O)N(C1CCCCC1)C2 | 598
29 | Cc1sc2ccn(Cc3ccc(F)cc3)c(=O)c2c1C(=O)NCCCN1CCOCC1 | 629
30 | CCOC(=O)c1cc(S(=O)(=O)N2CCCC2C(=O)Nc2ccc(C)cc2Br)cn1C (stereo not given) | 1060
31 | Cn1c(C(=O)NCCc2ccccc2)cc2sc(Cl)cc21 | 1050
32 | Cc1ccc(F)cc1S(=O)(=O)NC1CCN(c2ccccc2)C1=O (stereo not given) | 928
33 | NS(=O)(=O)c1cccnc1Nc1cccc(C(F)(F)F)c1 | 932
34 | CCOc1ccccc1CNC(=O)COc1nc(CC)nc2oc(C)c(C)c12 | 1050

Results, then the compound that gave them:

Row | RP-LC retention time [s] | Structure (SMILES)
35 | 768 | Cc1ccc(-c2noc(C3CC3)n2)cc1S(=O)(=O)N1CCC(C(=O)Nc2ncccc2C)CC1
36 | 733 | Cc1ccc(C(=O)NC2CCN(c3cc(-c4cccs4)[nH]n3)C2)cc1 (stereo not given)
37 | 868 | COc1cc(NS(=O)(=O)c2ccc3c(c2)C(=O)N(C)c2ncccc2O3)cc(OC)c1
38 | 887 | O=C(NCCOC(=O)c1ccco1)C(=O)Nc1nc(-c2ccccc2)cs1
39 | 672 | Cc1c(-c2ccnc(N3CCN(C)CC3)n2)cnc2nc(SCc3ccccc3)nn12
40 | 1040 | CCc1cccc(Nc2nc(C)cc(=O)n2CC(=O)Nc2ccc3c(c2)OCCO3)c1
41 | 985 | Cc1cccc(C(=O)Nc2nc(-c3ccc4c(c3)N(C)C(=O)CO4)cs2)c1
42 | 789 | O=C(Cc1ccc(F)cc1)NC1CCN(c2cc(-c3ccc(Cl)cc3)[nH]n2)C1 (stereo not given)
43 | 831 | O=C(Cn1cc(-c2nnco2)c2ccccc21)NCc1ccccc1Cl
44 | 823 | Cc1ccc(-c2noc(-c3cccnc3N3CCN(Cc4ccccc4)CC3)n2)cc1
45 | 929 | Cc1cccc(-c2noc(Cn3ccn(-c4ccc(Cl)cc4)c(=O)c3=O)n2)c1
46 | 1280 | COc1ccc(-c2nc(-c3ccc(S(=O)(=O)N4CCCCC4)cc3)no2)cc1
47 | 670 | COc1ccc(-c2noc(CN3CCC(C(=O)NC4CCCCC4)CC3)n2)cc1OC
48 | 642 | O=C(COc1ccc(-c2nnc3n2CCCC3)cc1)Nc1cccc(Br)c1
49 | 855 | COc1cccc(NC(=O)N2CCCC2c2cc(C(C)C)no2)c1 (stereo not given)
50 | 850 | COc1cccc(-c2cc3n(n2)CCCN(C(=O)NCc2ccco2)C3)c1

Row | RP-LC retention time [s] | Structure (SMILES)
51 | 899 | CC(C)NC(=O)c1ccc(OCC2CCN(C(=O)c3cccc(Cl)c3)CC2)cc1
52 | 873 | Cc1nc(-c2ccccc2)cc2nn(CC(=O)NCc3ccccc3)c(=O)n12
53 | 551 | CCc1nc(C2CCN(C(=O)C3(c4ccc(OC)cc4)CC3)CC2)n[nH]1
54 | 924 | CCn1ccc(C(=O)N2c3ccccc3CC2c2nc(C3CC3)no2)n1 (stereo not given)
55 | 837 | Cc1cc2c(cc1S(=O)(=O)N1CCCC1C(=O)N(Cc1ccccc1)C(C)C)OCC(=O)N2 (stereo not given)
56 | 1110 | COc1ccc(-n2c(=O)c(C(=O)NCC3CC3)c(O)c3cccnc32)cc1
57 | 752 | COc1cccc(N2CCN(C(=O)C3CC(=O)N(c4ccc5oc(C)nc5c4)C3)CC2)c1 (stereo not given)
58 | 964 | CCOc1ccc(-c2noc(Cn3nc(-c4ccccc4F)ccc3=O)n2)cc1OC
59 | 704 | Cc1nn(CC(=O)NCCN2CCOCC2)c(=O)c2c(-n3cccc3)n(-c3ccc(Cl)cc3)nc12
60 | 934 | COc1cccc(-n2ccnc(NC(=O)Nc3cccc(F)c3)c2=O)c1
61 | 726 | O=C(NCc1cccc(Cl)c1)C1CCc2nc(N3CCOCC3)ncc2C1 (stereo not given)
62 | 1120 | O=C(NCc1ccc(Br)cc1)C1CCCN(c2ncc(-c3ccc(F)cc3)cn2)C1 (stereo not given)
63 | 734 | Cc1ccc(C)c(C(=O)Nc2cccn3cnnc23)c1
64 | 778 | CCN1CCCn2cc(S(=O)(=O)NCc3ccc(C)cc3)cc2C1=O
65 | 625 | Cc1ccc(CNC(=O)CCc2ccc3nc(-c4ccccc4)[nH]c3c2)o1
